Patent publication US20230133087A1, “ACTIVE COMPOUND COMBINATIONS AND FUNGICIDE COMPOSITIONS COMPRISING THOSE” (priority 2020, published 2023)
Where “and” joins values, the source holds several entries; their conditions need not be identical. Equal values may be shown once.

Key:
Format in all cases: cell-based
Colletotrichum coccodes = experiment: In vitro-test with fungal microorganisms: Colletotrichum coccodes
Description: (§1) The degree of efficacy, expressed in % is denoted. 0% means an efficacy which corresponds to that of the control while an efficacy of 100% means that no disease is observed.
(§2) Wells of 96-well microtiter plates are filled with 30 μl of a preparation of test compound or compound combination in methanol+emulsifier alkylaryl-polyglycol-ether. Thereafter, the solvent is evaporated in a hood. At the next step, into each well 200 μl of liquid growth medium is given, that has been amended with an appropriate concentration of spores or mycelium suspension of the test fungus.
(§3) With the aid of a photometer the extinction in all wells is measured at the wavelength of 600 nm.
(§4) The microtiter plates are incubated for 3 to 7 days at 20° C. and 85% relative humidity. After the incubation inhibition of growth is determined photometrically. Efficacy is calculated in relation to the untreated control, 0% efficacy means fungal growth as high as in untreated control while 100% efficacy means no fungal growth is measured.

Cordana musae = experiment: In vitro-test with fungal microorganisms: Cordana musae
Description: as §1, §2, §3, §4

Diaporthe citri = experiment: In vitro-test with fungal microorganisms: Diaporthe citri
Description: as §1, §2, §3, §4

Parastasonospora nodorum = experiment: In vitro-test with fungal microorganisms: Parastasonospora nodorum
Description: as §1, §2, §3, §4

Alternaria alternata = experiment: In vitro-test with fungal microorganisms (microtiter plate, photometric growth inhibition): Alternaria alternata
Description: as §1, §2, §3, §4

Botrytis cinerea = experiment: In vitro-test with fungal microorganisms: Botrytis cinerea
Description: as §1, §2, §3, §4

Cercospora beticola = experiment: In vitro-test with fungal microorganisms: Cercospora beticola
Description: as §1, §2, §3, §4

Fusarium culmorum = experiment: In vitro-test with fungal microorganisms: Fusarium culmorum
Description: as §1, §2, §3, §4

`O=C(NC1CCC1c1ccc(Cl)cc1Cl)c1cccnc1C(F)(F)F` (stereo in doubt) [(2.060) cyclobutrifluram, cyclobutrifluram] was tested, and the efficacy (Colletotrichum coccodes; 0.04 ppm) was 5%, the efficacy (Colletotrichum coccodes; 0.2 ppm) was 8% and the efficacy (Cordana musae; 0.04 ppm) was 3%. For the same compound, the efficacy (Cordana musae; 0.2 ppm) was 4% and the efficacy (Cordana musae; 1 ppm) was 6%.
`O=C(NC1CCC1c1ccc(Cl)cc1Cl)c1cccnc1C(F)(F)F` (stereo in doubt) [cyclobutrifluram] gave an efficacy (Diaporthe citri; Table F1, 0.04 ppm) of 0% and an efficacy (Parastasonospora nodorum; Table H2, 0.04 ppm) of 27%.
For `O=C(NCCc1ncc(C(F)(F)F)cc1Cl)c1ccccc1C(F)(F)F` [(2.005) fluopyram, fluopyram], the efficacy (Colletotrichum coccodes; 0.16 ppm) was 10% and 0%, the efficacy (Colletotrichum coccodes; 0.8 ppm) was 0% and the efficacy (Cordana musae; 0.16 ppm) was 0%. The efficacy (Cordana musae; 0.8 ppm) was 6% and 0%, the efficacy (Alternaria alternata; 0.16 ppm) was 72% and the efficacy (Alternaria alternata; 0.8 ppm) was 73%. The efficacy (Alternaria alternata; 4 ppm) was 95% and the efficacy (Botrytis cinerea; 0.8 ppm) was 0%.
Compound `Cc1nn(C)c(F)c1C(=O)Nc1ccccc1C(C)CC(C)C` (stereo not shown) [(2.017) penflufen, penflufen] has an efficacy (Colletotrichum coccodes; 0.04 ppm) of 5%, an efficacy (Colletotrichum coccodes; 0.2 ppm) of 0% and an efficacy (Alternaria alternata; 0.2 ppm) of 14%. For the same compound, the efficacy (Botrytis cinerea; 1 ppm) was 35% and the efficacy (Botrytis cinerea; 5 ppm) was 7%.
`CON(C(=O)c1cn(C)nc1C(F)F)C(C)Cc1c(Cl)cc(Cl)cc1Cl` (stereo not shown) [(2.019) pydiflumetofen, pydiflumetofen] was tested, and the efficacy (Colletotrichum coccodes; 0.008 ppm) was 8% and 9%, the efficacy (Colletotrichum coccodes; 0.2 ppm) was 19% and the efficacy (Botrytis cinerea; 0.04 ppm) was 71%. It also gave an efficacy (Botrytis cinerea; 0.2 ppm) of 82% and an efficacy (Botrytis cinerea; 1 ppm) of 92%.
With `CC(C)c1ccc(Cl)cc1CN(C(=O)c1c(C(F)F)nn(C)c1F)C1CC1` [(2.038) isoflucypram, isoflucypram] the efficacy (Colletotrichum coccodes; 0.008 ppm) was 23%, the efficacy (Colletotrichum coccodes; 0.04 ppm) was 9% and 5% and the efficacy (Colletotrichum coccodes; 0.2 ppm) was 14%. The efficacy (Cordana musae; 0.008 ppm) was 8% and 2%, the efficacy (Cordana musae; 0.04 ppm) was 0% and the efficacy (Alternaria alternata; 0.008 ppm) was 51%. The efficacy (Alternaria alternata; 0.2 ppm) was 69%, the efficacy (Cercospora beticola; 0.008 ppm) was 20% and the efficacy (Cercospora beticola; 0.04 ppm) was 30%. It also gave an efficacy (Cercospora beticola; 0.2 ppm) of 0% and an efficacy (Cercospora beticola; 1 ppm) of 88%.
With `CO/N=C(/C1=NOCCO1)c1ccccc1Oc1ncnc(Oc2ccccc2Cl)c1F` [(3.012) fluoxastrobin, fluoxastrobin] the efficacy (Colletotrichum coccodes; 0.008 ppm) was 0%, the efficacy (Colletotrichum coccodes; 0.08 ppm) was 30% and 15% and the efficacy (Colletotrichum coccodes; 0.4 ppm) was 49% and 50% and 51%. For the same compound, the efficacy (Colletotrichum coccodes; 2 ppm) was 88% and 87% and 82% and 83%, the efficacy (Colletotrichum coccodes; 10 ppm) was 94% and 95% and 96% and the efficacy (Cordana musae; 2 ppm) was 77%. The efficacy (Cordana musae; 10 ppm) was 87%, the efficacy (Alternaria alternata; 2 ppm) was 100% and the efficacy (Botrytis cinerea; 0.08 ppm) was 15% and 12%. For the same compound, the efficacy (Botrytis cinerea; 2 ppm) was 59% and 52%, the efficacy (Botrytis cinerea; 10 ppm) was 86% and 83% and the efficacy (Cercospora beticola; 2 ppm) was 94%.
`CON=C(C(=O)OC)c1ccccc1CON=C(C)c1cccc(C(F)(F)F)c1` [(3.020) trifloxystrobin, trifloxystrobin] was tested, and the efficacy (Colletotrichum coccodes; 0.04 ppm) was 58% and 62% and 61%, the efficacy (Colletotrichum coccodes; 0.2 ppm) was 84% and 88% and 82% and the efficacy (Colletotrichum coccodes; 1 ppm) was 96% and 97% and 92%. For the same compound, the efficacy (Cordana musae; 0.008 ppm) was 29%, the efficacy (Cordana musae; 0.04 ppm) was 82% and the efficacy (Cordana musae; 0.2 ppm) was 83% and 82%. For the same compound, the efficacy (Cordana musae; 1 ppm) was 89% and 88% and 86% and 85%, the efficacy (Alternaria alternata; 0.008 ppm) was 39% and the efficacy (Alternaria alternata; 1 ppm) was 100%. For the same compound, the efficacy (Botrytis cinerea; 0.008 ppm) was 0%, the efficacy (Botrytis cinerea; 0.04 ppm) was 9% and the efficacy (Botrytis cinerea; 0.2 ppm) was 25%. For the same compound, the efficacy (Botrytis cinerea; 1 ppm) was 81%.
`Cc1cccc(-n2nnn(C)c2=O)c1COc1ccn(-c2ccc(Cl)cc2)n1` [(3.030) metyltetraprole, metyltetraprole] was tested, and the efficacy (Colletotrichum coccodes; 0.008 ppm) was 36%, the efficacy (Colletotrichum coccodes; 0.4 ppm) was 75% and 73% and 72% and the efficacy (Colletotrichum coccodes; 2 ppm) was 92% and 94% and 82%. The efficacy (Colletotrichum coccodes; 10 ppm) was 100%, the efficacy (Cordana musae; 0.08 ppm) was 65% and the efficacy (Cordana musae; 0.4 ppm) was 77%. For the same compound, the efficacy (Cordana musae; 10 ppm) was 96%, the efficacy (Alternaria alternata; 2 ppm) was 92% and 99% and the efficacy (Alternaria alternata; 10 ppm) was 99%. For the same compound, the efficacy (Botrytis cinerea; 0.08 ppm) was 18%, the efficacy (Botrytis cinerea; 0.4 ppm) was 30% and 25% and the efficacy (Botrytis cinerea; 10 ppm) was 84%.
For `COC(=O)C(O)(Cn1cncn1)c1ccc(Oc2ccc(Cl)cc2)cc1Cl` (stereo not shown) [(I-1), Methyl 2-[2-chloro-4-(4-chlorophenoxy)phenyl]-2-hydroxy-3-(1,2,4-triazol-1-yl)propanoate], the efficacy (Colletotrichum coccodes; 0.02 ppm) was 0% and 4%, the efficacy (Alternaria alternata; 2.5 ppm) was 92% and the efficacy (Diaporthe citri; Table F1, 2.5 ppm) was 99%. It also gave an efficacy (Diaporthe citri; Table F2, 0.02 ppm) of 2%, an efficacy (Diaporthe citri; Table F2, 0.5 ppm) of 92% and an efficacy (Diaporthe citri; Table F2, 2.5 ppm) of 98%. For the same compound, the efficacy (Fusarium culmorum; 0.02 ppm) was 9%, the efficacy (Fusarium culmorum; 0.1 ppm) was 6% and 0% and the efficacy (Fusarium culmorum; 0.5 ppm) was 0%. For the same compound, the efficacy (Botrytis cinerea; 2.5 ppm) was 62%, the efficacy (Botrytis cinerea; 2.5 ppm, with penflufen 1 ppm, metyltetraprole 0.08 ppm) was 63% and the efficacy (Parastasonospora nodorum; Table H1, 0.02 ppm) was 0%. The efficacy (Parastasonospora nodorum; Table H1, 2.5 ppm) was 99%, the efficacy (Parastasonospora nodorum; Table H2, 0.02 ppm) was 2% and 0% and 3% and the efficacy (Parastasonospora nodorum; Table H2, 2.5 ppm) was 96%. For the same compound, the efficacy (Parastasonospora nodorum; Table H3, 0.02 ppm) was 9%, the efficacy (Cercospora beticola; 0.02 ppm) was 50% and the efficacy (Cercospora beticola; 0.1 ppm) was 36%. For the same compound, the efficacy (Cercospora beticola; 0.5 ppm) was 74% and the efficacy (Cercospora beticola; 2.5 ppm) was 99%.
With `O=C(NCCc1ncc(C(F)(F)F)cc1Cl)c1ccccc1C(F)(F)F` [fluopyram] the efficacy (Diaporthe citri; Table F1, 0.16 ppm) was 0%, the efficacy (Fusarium culmorum; 0.16 ppm) was 9% and the efficacy (Fusarium culmorum; 0.8 ppm) was 18%. For the same compound, the efficacy (Parastasonospora nodorum; Table H1, 0.16 ppm) was 14% and the efficacy (Parastasonospora nodorum; Table H1, 20 ppm) was 100%.
With `CO/N=C(/C1=NOCCO1)c1ccccc1Oc1ncnc(Oc2ccccc2Cl)c1F` [fluoxastrobin] the efficacy (Cordana musae; 0.4 ppm) was 64%, the efficacy (Cordana musae; 2 ppm) was 78% and the efficacy (Cordana musae; 10 ppm) was 78%. For the same compound, the efficacy (Diaporthe citri; Table F1, 0.4 ppm) was 89%, the efficacy (Diaporthe citri; Table F1, 2 ppm) was 98% and the efficacy (Diaporthe citri; Table F2, 2 ppm) was 66%. For the same compound, the efficacy (Fusarium culmorum; 0.08 ppm) was 7% and 0%, the efficacy (Fusarium culmorum; 0.4 ppm) was 17% and the efficacy (Fusarium culmorum; 10 ppm) was 56%. It also gave an efficacy (Parastasonospora nodorum; Table H1, 0.4 ppm) of 77%, an efficacy (Parastasonospora nodorum; Table H1, 2 ppm) of 87% and an efficacy (Parastasonospora nodorum; Table H2, 0.08 ppm) of 60%. It also gave an efficacy (Parastasonospora nodorum; Table H2, 0.4 ppm) of 65%, an efficacy (Parastasonospora nodorum; Table H2, 2 ppm) of 85% and an efficacy (Parastasonospora nodorum; Table H3, 0.08 ppm) of 57%. For the same compound, the efficacy (Parastasonospora nodorum; Table H3, 2 ppm) was 85% and the efficacy (Parastasonospora nodorum; Table H3, 10 ppm) was 82%.
For `C[C@@H]1CC(C)(C)c2cccc(NC(=O)c3cn(C)nc3C(F)F)c21` [inpyrfluxam], the efficacy (Cordana musae; 0.008 ppm) was 16%, the efficacy (Cordana musae; 0.04 ppm) was 0% and the efficacy (Cordana musae; 0.2 ppm) was 6%. It also gave an efficacy (Parastasonospora nodorum; Table H3, 0.008 ppm) of 20%.
`CC(C)c1ccc(Cl)cc1CN(C(=O)c1c(C(F)F)nn(C)c1F)C1CC1` [isoflucypram] was tested, and the efficacy (Fusarium culmorum; 0.04 ppm) was 0% and the efficacy (Fusarium culmorum; 0.2 ppm) was 11%.
In the case of `Cc1cccc(-n2nnn(C)c2=O)c1COc1ccn(-c2ccc(Cl)cc2)n1` [metyltetraprole], the efficacy (Cordana musae; 0.08 ppm) is reported as 58%, the efficacy (Cordana musae; 0.4 ppm) is reported as 73% and the efficacy (Cordana musae; 2 ppm) is reported as 82%. The efficacy (Diaporthe citri; Table F1, 0.4 ppm) was 91%, the efficacy (Diaporthe citri; Table F1, 2 ppm) was 99% and the efficacy (Diaporthe citri; Table F1, 10 ppm) was 99%. The efficacy (Diaporthe citri; Table F2, 0.4 ppm) was 89%, the efficacy (Diaporthe citri; Table F2, 2 ppm) was 99% and the efficacy (Parastasonospora nodorum; Table H2, 0.08 ppm) was 80% and 76%. It also gave an efficacy (Parastasonospora nodorum; Table H2, 0.4 ppm) of 92%, an efficacy (Parastasonospora nodorum; Table H2, 2 ppm) of 100% and an efficacy (Parastasonospora nodorum; Table H2, 10 ppm) of 100%.
With `Cc1nn(C)c(F)c1C(=O)Nc1ccccc1C(C)CC(C)C` (stereo not shown) [penflufen] the efficacy (Cordana musae; 0.2 ppm) was 0%, the efficacy (Cordana musae; 1 ppm) was 0% and the efficacy (Diaporthe citri; Table F2, 0.04 ppm) was 0%. The efficacy (Diaporthe citri; Table F2, 0.2 ppm) was 0% and the efficacy (Parastasonospora nodorum; Table H2, 5 ppm) was 22%.
With `CON(C(=O)c1cn(C)nc1C(F)F)C(C)Cc1c(Cl)cc(Cl)cc1Cl` (stereo not shown) [pydiflumetofen] the efficacy (Cordana musae; 0.008 ppm) was 0%, the efficacy (Cordana musae; 0.04 ppm) was 9% and the efficacy (Diaporthe citri; Table F2, 0.04 ppm) was 0%. For the same compound, the efficacy (Diaporthe citri; Table F2, 0.2 ppm) was 22% and the efficacy (Diaporthe citri; Table F2, 1 ppm) was 33%.
Compound `CON=C(C(=O)OC)c1ccccc1CON=C(C)c1cccc(C(F)(F)F)c1` [trifloxystrobin] has an efficacy (Cordana musae; 0.2 ppm) of 73%, an efficacy (Cordana musae; 1 ppm) of 84% and an efficacy (Fusarium culmorum; 0.008 ppm) of 14%. The efficacy (Fusarium culmorum; 0.04 ppm) was 18%, the efficacy (Fusarium culmorum; 0.2 ppm) was 41% and the efficacy (Fusarium culmorum; 1 ppm) was 68%. It also gave an efficacy (Parastasonospora nodorum; Table H1, 0.04 ppm) of 65%, an efficacy (Parastasonospora nodorum; Table H1, 0.2 ppm) of 85% and an efficacy (Parastasonospora nodorum; Table H2, 0.008 ppm) of 44%. For the same compound, the efficacy (Parastasonospora nodorum; Table H2, 0.04 ppm) was 79%.
inpyrfluxam [(2.027) inpyrfluxam] showed an efficacy (Colletotrichum coccodes; 0.008 ppm) of 0%, an efficacy (Colletotrichum coccodes; 0.08 ppm) of 24% and an efficacy (Colletotrichum coccodes; 0.2 ppm) of 0%. For the same compound, the efficacy (Colletotrichum coccodes; 0.4 ppm) was 23%, the efficacy (Cordana musae; 0.008 ppm) was 16% and the efficacy (Cordana musae; 0.04 ppm) was 0%. For the same compound, the efficacy (Cordana musae; 0.2 ppm) was 6%, the efficacy (Alternaria alternata; 0.008 ppm) was 0% and the efficacy (Alternaria alternata; 0.04 ppm) was 41% and 27%. It also gave an efficacy (Alternaria alternata; 1 ppm) of 86%, an efficacy (Botrytis cinerea; 0.008 ppm) of 0% and an efficacy (Botrytis cinerea; 0.04 ppm) of 37%. For the same compound, the efficacy (Botrytis cinerea; 0.08 ppm) was 0%.
